Assay results as given in publication PMC6036117, “Structural Insight Into Conformational Changes Induced by ATP Binding in a Type III Secretion-Associated ATPase From Shigella flexneri” (Frontiers in Microbiology, 2018).
Like-named read-outs stand apart in the source and are kept apart here.

Key:
Spa47Δ1-83 = biological target: T1, Spa47Δ1-83 (Shigella flexneri, UniProt P0A1C1); assay: Isothermal titration calorimetry (ITC) of nucleotide binding to monomeric Spa47Δ1-83; settings: for Ka (affinity constant) / ΔH (enthalpy variation) / ΔS (entropy variation): ATP without Mg2+, other ligands with Mg2+
T1 construct: The cDNA encoding Spa47Δ1-83 (84–430 aa) was amplified; 6xHis (pET28a, thrombin site) (N, cleaved yes); made in house; host or cells: E. coli Rosetta (DE3)
Protocol: An isothermal titration calorimetry (ITC) assay was performed with a MicroCalTM iTC200 calorimeter (MicroCal, USA) at 25°C. Both the protein and the ATP homolog were dissolved in the same buffer (20 mM Tris-HCl, pH = 8.0, 100 mM NaCl, 5 mM MgCl2). The concentrations of Spa47Δ1-83 and the mutants were between 0.03 and 0.04 mM. The concentration of ATP analogs was between 1 and 2 mM. Titration consisted of 18 consecutive 2-μl injections of ATP analogs with a 120-s interval between injections using a stir rate of 600 rpm. The dilution heat of the ligand was measured by adding ligand to a buffer solution under these conditions, and the injection schedule was identical to that used for the protein sample. For titration of the protein with ATP, MgCl2 was omitted in the buffer. Data acquisition and analysis were performed using Origin software. A single binding site model was used for nonlinear curve fitting. ITC experiments were repeated twice for each ligand.

muscle creatine kinase = biological target: muscle creatine kinase; set-up: method as in Forstner et al., 1999; settings: ATP binding; ref Forstner et al., 1999; cited from earlier work
[1] = biological target: subunit B of the A1A0 ATP synthase; set-up: method as in Kumar et al., 2009; settings: ATP binding; ref Kumar et al., 2009; cited from earlier work
p97 = biological target: p97; set-up: method as in Tang et al., 2010; settings: ATP binding; ref Tang et al., 2010; cited from earlier work
[2] = ITC, 25°C, 20 mM Tris-HCl pH 8.0, 100 mM NaCl, 5 mM MgCl2 (MgCl2 omitted for ATP), single binding site model, Kd calculated as 1/Ka, read-out: Kd (apparent dissociation constant)

| SMILES | Kd (Spa47Δ1-83; [2]) [µM] | Ka (affinity constant) (Spa47Δ1-83; ITC, 25°C) | ΔH (enthalpy variation) (Spa47Δ1-83; ITC, 25°C) [kcal/mol] | ΔS (entropy variation) (Spa47Δ1-83; ITC, 25°C) [cal/mole/deg] | Kd (muscle creatine kinase) [µM] | Kd [1] [µM] | Kd (p97) [nM] | Kd (Spa47Δ1-83; ITC, 25°C, 20 mM Tris-HCl pH 8.0, 100 mM NaCl, 5 mM MgCl2 (MgCl2 omitted for ATP), single binding site model, Kd calculated as 1/Ka, listed as AMP-PNP, read-out: Kd (apparent dissociation constant)) [µM] | fold lower binding affinity than ATP and ATPγS (Spa47Δ1-83; ITC, relative to the affinity measured for ATP and ATPγS) | Kd (Spa47Δ1-83) [µM] |
| --- | --- | --- | --- | --- | --- | --- | --- | --- | --- | --- |
| Nc1ncnc2c1ncn2[C@@H]1O[C@H](COP(=O)(O)OP(=O)(O)O)[C@@H](O)[C@H]1O [ADP] | 150 ± 6.03 | 0.067±0.003 10^5. M^-1 | -17.24 ± 3.82 | -40.30 |  |  |  |  |  |  |
| Nc1ncnc2c1ncn2[C@@H]1O[C@H](COP(=O)(O)OP(=O)(O)OP(=O)(O)O)[C@@H](O)[C@H]1O [ATP] | 23.1 ± 3.44 | 0.443±0.070 10^5. M^-1 | -4.99 ± 0.53 | 4.50 | 4 to 16 | 22 | 890 |  |  |  |
| Nc1ncnc2c1ncn2[C@@H]1O[C@H](COP(=O)(O)OP(=O)(O)NP(=O)(O)O)[C@@H](O)[C@H]1O [AMPPNP] | 322 ± 12.6 | 0.031±0.001 10^5. M^-1 | -7.21 ± 0.11 | -8.20 |  |  |  | 322 ± 12.6 | ~ 15 fold |  |
| Nc1ncnc2c1ncn2[C@@H]1O[C@H](CO[P@](=O)(O)O[P@](=O)(O)O[P@@](=O)(O)S)[C@@H](O)[C@H]1O [ATPγS] |  | 0.472±0.017 10^5. M^-1 | -8.16 ± 0.16 | -6.00 |  |  |  |  |  | 21.2 ± 0.8 |
